Assay results: publication PMC4461796, “Synthesis, anticholinesterase and antioxidant potentials of ketoesters derivatives of succinimides: a possible role in the management of Alzheimer’s” (Chemistry Central Journal, 2015)
Converted amounts (≈) assume the structure as drawn. “And” between values parts separate entries of the source, which are not always exact repeats. Equal values may be shown once. Read-outs that look alike come from different tables or passages of the source.

Legend:
[1] = biological target: T1, acetylcholinesterase (AChE) from Electric eel (Electrophorus electricus, UniProt O42275); format: biochemical; conditions: n = 3
T1 construct: AChE Electric eel (type-VI-S, CAS 9000-81-1 Sigma-Aldrich GmbH USA); purchased Sigma-Aldrich type-VI-S (CAS 9000-81-1; catalogue number not given)
T1 sequence (O42275 24-633): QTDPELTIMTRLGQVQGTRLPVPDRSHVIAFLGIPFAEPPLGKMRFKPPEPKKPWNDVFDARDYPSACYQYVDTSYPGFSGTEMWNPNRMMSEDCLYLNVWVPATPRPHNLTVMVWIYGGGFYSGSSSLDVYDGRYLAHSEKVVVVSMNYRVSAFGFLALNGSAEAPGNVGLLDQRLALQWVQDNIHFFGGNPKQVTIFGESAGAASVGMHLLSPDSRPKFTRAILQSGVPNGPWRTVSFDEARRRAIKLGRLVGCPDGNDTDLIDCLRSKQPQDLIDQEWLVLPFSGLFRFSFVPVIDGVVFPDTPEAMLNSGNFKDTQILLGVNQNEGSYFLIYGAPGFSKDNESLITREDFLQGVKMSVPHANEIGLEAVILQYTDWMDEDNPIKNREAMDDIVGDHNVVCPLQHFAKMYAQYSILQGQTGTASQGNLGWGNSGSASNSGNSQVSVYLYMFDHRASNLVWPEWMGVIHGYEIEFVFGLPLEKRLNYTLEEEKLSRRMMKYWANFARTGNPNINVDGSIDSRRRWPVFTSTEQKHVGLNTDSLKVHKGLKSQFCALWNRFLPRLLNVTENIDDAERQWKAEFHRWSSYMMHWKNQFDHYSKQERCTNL
Method: (§1) The assay is based on the acetylcholinesterase promoted hydrolysis of acetylthiocholine iodide and butyrylthiocholine iodide by butyrylcholinesterase. The hydrolysis processes give 5-thio-2-nitrobenzoate anion followed by complexation with DTNB (which give yellow color) and is detected by the spectrophotometer.
(§2) Compounds (each separately) were dissolved in phosphate buffer (0.1 M) in concentrations ranging from 250–1000 μg/mL. […] Finally, potassium hydroxide was used to adjust pH. AChE (518 U/mg solid) and BChE (7–16 U/mg) were diluted in freshly prepared buffer pH 8.0 until final concentrations of 0.03 U/mL and 0.01 U/mL were obtained. Solutions of DTNB (0.0002273 M), ATchI and BTchI (0.0005 M) were prepared in distilled water and were kept in Eppendorf caps in the refrigerator.
(§3) For each assay, an enzyme solution of 5 μl was added to the cuvette followed by addition of compound (205 μl), and finally DTNB reagent (5 μl). The solution mixture was maintained at 30 °C for 15 min using water bath with subsequent addition of substrate solution (5 μl). A double beam spectrophotometer was used to measure the absorbance at 412 nm. […] The absorbances along with the reaction time were taken for four minutes at 30 °C and were repeated in triplicate. Finally, the enzyme activity and enzyme inhibition by control and tested samples were calculated from the rate of absorption with change in time (V = ΔAbs /Δt) as follow;
Where Vmax is enzyme activity in the absence of inhibitor drug. […]

[2] = biological target: T2, butyrylcholinesterase (BChE) from equine serum (Equus caballus, UniProt P81908); assay: Butyrylcholinesterase inhibition assay (Ellman's spectrophotometric assay); format: biochemical; conditions: for IC50: from 250-1000 μg/mL tested concentrations; for inhibition at 250 µg/mL / inhibition at 500 µg/mL / inhibition at 1000 µg/mL: read-out: Percent AChEI (mean ± SEM) (Table 3, butyrylcholinesterase inhibition)
T2 construct: BChE equine serum Lyophilized (CAS 9001-08-5 Sigma-Aldrich GmbH USA); purchased Sigma-Aldrich CAS 9001-08-5 (catalogue number not given); host or cells: equine serum
T2 sequence (P81908 whole entry): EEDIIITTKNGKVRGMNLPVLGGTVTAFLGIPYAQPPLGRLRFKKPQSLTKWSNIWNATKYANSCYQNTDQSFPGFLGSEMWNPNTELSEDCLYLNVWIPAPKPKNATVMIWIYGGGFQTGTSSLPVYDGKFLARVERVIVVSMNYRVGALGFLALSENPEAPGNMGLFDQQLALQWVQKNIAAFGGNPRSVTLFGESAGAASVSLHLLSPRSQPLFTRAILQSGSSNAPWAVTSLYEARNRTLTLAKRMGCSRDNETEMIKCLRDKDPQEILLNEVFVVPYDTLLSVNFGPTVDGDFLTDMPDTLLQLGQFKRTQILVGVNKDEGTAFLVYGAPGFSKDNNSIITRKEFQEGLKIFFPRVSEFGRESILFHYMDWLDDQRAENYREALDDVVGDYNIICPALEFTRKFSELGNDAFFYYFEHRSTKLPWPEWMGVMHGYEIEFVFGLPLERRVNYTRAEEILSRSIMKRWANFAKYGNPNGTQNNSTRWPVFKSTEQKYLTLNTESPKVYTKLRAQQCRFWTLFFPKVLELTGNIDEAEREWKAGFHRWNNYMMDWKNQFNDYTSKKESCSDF
Method: as §1, §2, §3
Where Vmax is enzyme activity in the absence of inhibitor drug.
(§4) Radical scavenging ability was calculated by a linear regression analysis among the inhibition percentages against the compounds concentrations via the Excel program.

[3] = DPPH free radicals scavenging assay; conditions: for Percent inhibition (mean ± SEM), DPPH free radicals scavenging: n = 3; for IC50 (DPPH free radicals scavenging): from 250-1000 μg/mL tested concentrations
Method: The compounds’ free radical scavenging ability was evaluated using 1,1-diphenyl, 2-picrylhydrazyl (DPPH) free radicals. Different dilutions (250, 500 and 1000 μg/mL) of compounds (0.1 mL) were added to 0.004 % methanolic solution of DPPH. After 30 min the absorbance was measured at 517 nm using UV spectrophotometer. Ascorbic acid was used as positive control.
Percent scavenging activity was calculated as; A0−A1/A0×100
Where A0 is absorbance of control and A1 is the absorbance of the compound sample. Each experiment was performed in triplicate and inhibition curves were constructed using the GraphPad prism program (GraphPAD, San Diego, California, USA) and median inhibitory concentrations (IC50) values were determined.
as §4

[4] = ABTS free radicals scavenging assay; conditions: for Percent inhibition (mean ± SEM), ABTS free radicals scavenging: n = 3; for IC50 (ABTS free radicals scavenging): from 250-1000 μg/mL tested concentrations
Method: ABTS (2, 2-azinobis [3-ethylbenzthiazoline]-6-sulfonic acid) free radicals were also used to confirm the antioxidant activity of the synthesized compounds. The activity is based on the capacity of antioxidants to scavenge ABTS^+ radical cation causing a reduction in absorbance at 734 nm. ABTS (7 mM) and […] (2.45 mM) solutions were prepared and mixed. The resultant mixture was maintained at room temperature in dark for 12–16 h to get dark color solution containing ABTS^+ radical cations. At the time of activity, ABTS^+ radical cation solution was diluted with Phosphate buffer (0.01 M) pH 7.4 to adjust an absorbance value of 0.70 at 734 nm. Radical scavenging capability of the compounds was analyzed by mixing 300 μl of compound with 3.0 mL of ABTS solution in cuvette. The reduction in absorbance was measured spectrophotometrically after one minute of mixing the solutions and continued for six min. Ascorbic acid was used as a positive control. The assay was repeated three times and percent inhibition was calculated with formula; %scavengingeffect=Controlabsorbance‐Sampleabsorbance/Controlabsorbance×100
as §4

| SMILES | Percent AChEI (mean ± SEM) ([1]; concentration 250 μg/mL) | Percent AChEI (mean ± SEM) ([1]; concentration 500 μg/mL) | Percent AChEI (mean ± SEM) ([1]; concentration 1000 μg/mL) | IC50 [2] [µM] | inhibition at 250 µg/mL [2] [%] | inhibition at 500 µg/mL [2] [%] | inhibition at 1000 µg/mL [2] [%] | Percent inhibition (mean ± SEM), DPPH free radicals scavenging ([3]; conc. 250 μg/mL) [%] | Percent inhibition (mean ± SEM), DPPH free radicals scavenging ([3]; conc. 500 μg/mL) [%] | Percent inhibition (mean ± SEM), DPPH free radicals scavenging ([3]; conc. 1000 μg/mL) [%] | IC50 (DPPH free radicals scavenging) [3] [µg/mL] | Percent inhibition (mean ± SEM), ABTS free radicals scavenging ([4]; conc. 250 μg/mL) [%] | Percent inhibition (mean ± SEM), ABTS free radicals scavenging ([4]; conc. 500 μg/mL) [%] | Percent inhibition (mean ± SEM), ABTS free radicals scavenging ([4]; conc. 1000 μg/mL) [%] | IC50 (ABTS free radicals scavenging) [4] [µg/mL] |
| --- | --- | --- | --- | --- | --- | --- | --- | --- | --- | --- | --- | --- | --- | --- | --- |
| CCOC(=O)C1(C2CC(=O)N(c3ccccc3)C2=O)CCCCC1=O (centres unmarked) [Compound 3, Ethyl 2-oxo-1-(2,5-dioxo-1-phenylpyrrolidin-3-yl)cyclohexanecarboxylate] | 95.25 ± 0.20 ^ns % | 96.00 ± 0.80 ^ns % | 98.50 ± 0.09% and 98.50 ± 0.09 ^ns % | 20.4 | 78.25 ± 0.04 | 89 ± 0.3 | 89.25 ± 0.5 | 30.59 ± 0.67 | 54.64 ± 0.70 | 60.40 ± 0.49 | 535 (≈ 1560 µM) | 64.67 ± 0.89 | 71.25 ± 0.48 | 80.41 ± 0.73 | 73 (≈ 213 µM) |
| CCOC(=O)C1(C2CC(=O)N(Cc3ccccc3)C2=O)CCCC1=O (centres unmarked) [Compound 2, Ethyl 1-(1-benzyl-2,5-dioxopyrrolidin-3-yl)-2-oxocyclopentanecarboxylate] | 91.00 ± 0.52% and 91.00 ± 0.52 ^ns % | 91.75 ± 0.04% and 91.75 ± 0.04 ^ns % | 98.75 ± 0.25% and 98.75% and 98.75 ± 0.25 ^ns % | < 0.291 | 84.25 ± 0.12 | 86.75 ± 0.22 | 90 ± 0.1 | 33.61 ± 0.66 | 52.48 ± 0.56 | 70.32 ± 0.61 | 460 (≈ 1340 µM) | 59.66 ± 0.66 | 72.45 ± 0.65 | 86.49 ± 0.49 | 141 (≈ 411 µM) |
| COc1ccc2c3c1O[C@H]1C[C@@H](O)C=C[C@@]31CCN(C)C2 [Galanthamine, reference compound] |  |  |  |  | 71.72 ± 0.51 | 85.47 ± 0.59 | 94.5 ± 0.71 |  |  |  |  |  |  |  |  |
| CCOC(=O)C1(C2CC(=O)N(Cc3ccccc3)C2=O)CCCCC1=O (centres unmarked) [Compound 4, 1Ethyl 1-(1-benzyl-2,5-dioxopyrrolidin-3-yl)-2-oxocyclohexanecarboxylate] | 93.25 ± 0.15 ^ns % | 96.00 ± 0.55 ^ns % | 97.25 ± 0.07% and 97.25 ± 0.07 ^ns % | 5.6 | 87.5 ± 0.04 | 88.5 ± 0.5 | 98.5 ± 0.18 | 20.34 ± 0.58 | 24.75 ± 0.64 | 45.80 ± 0.61 | >1000 | 54.00 ± 1.15 | 67.33 ± 0.77 | 73.59 ± 0.43 | 173 (≈ 484 µM) |
| CCOC(=O)C1(C2CC(=O)N(c3ccccc3)C2=O)CCCC1=O (centres unmarked) [Compound 1, Ethyl 2-oxo-1-(2,5-dioxo-1-phenylpyrrolidin-3-yl)cyclopentanecarboxylate] | 93.25 ± 0.25 ^ns % | 94.25 ± 0.05 ^ns % | 98.00 ± 0.70% and 98.00 ± 0.70^ns % | 128 | 72.5 ± 0.02 | 82.5 ± 0.18 | 90.25 ± 0.02 | 35.60 ± 0.75 | 52.49 ± 0.78 | 72.41 ± 0.45 | 440 (≈ 1340 µM) | 65.00 ± 0.57 | 77.45 ± 0.54 | 88.51 ± 0.62 | 90 (≈ 273 µM) |
| O=C1O[C@H]([C@@H](O)CO)C(O)=C1O [Ascorbic acid, reference compound] |  |  |  |  |  |  |  | 78.61 ± 0.23 | 81.71 ± 0.54 | 93.56 ± 0.37 | 20 (≈ 114 µM) | 84.66 ± 0.88 | 87.23 ± 0.47 | 91.62 ± 0.62 | <0.1 |
